Marks after values point to notes of the source that are not given here. No end group written: not given here.
Columns and labels:
Assay type in all cases: in vivo, BALB/c mice
[1] = immunity organ weight test (thymus gland index, spleen index); conditions: X ± SD
Experimental: (§1) The above substances were all dissolved in 0.5 ml saline and injected intraperitoneal (i.p.) for 15 continuous days, once per day.
(§2) One day after the last test substance administration (day 16), the liver, spleen, and thymus gland were separated and blotted dry with filter paper and weighed. The phagocytosis index α was calculated as below: α=(^3√K)(W÷WLS) key: W: body weight WLS: weight of liver plus spleen Thymus gland index(%)=(thymus weight/body weight)×100% Spleen index(%)=(spleen weight/body weight)×100%

[2] = test system: NK cell; test: NK cell cytotoxicity activity test (YAC-1 target cells, MTT) on spleen cells of treated mice; conditions: IFN-γ and IL-2 groups 3×10^5 IU/kg/day, X ± SD
Experimental: as §1
(§3) Ten mice per group. The day after the last test substance administration, the mice were sacrificed by cervical dislocation. The spleen was isolated aseptically and manually dispersed in cold D-Hank's solution using an injection needle. The dispersed cell suspension was further sieved through a 100 gauge 150 μm diameter stainless steel sieve. After centrifugation at 200 g for 10 minutes, the supernatant was discarded. The cell pellet was re-suspended in 10 volume of Tris-NH4Cl buffer and then kept standing still for 10 minutes at room temperature. The suspended cells were collected by centrifugation at 150 g for 10 minutes. The cells were washed 2-4 times with cold D-Hank's solution by re-suspending and collecting by centrifugation with condition as described above. The washed cells were then diluted to the desired cell densities by RPMI-1640 culture medium, containing 10% fetal bovine serum.
Mice spleen cells were prepared to 4×10^6/ml as described in section 1.1 above. Target cells YAC-1 were brought to log phase and adjusted to 1×10^5/ml. Using a 96 wells cell culture plate, 100 μl mouse spleen cells and 100 μl culture medium were added to the control well containing only the spleen cells; 100 μl target cells and 100 μl culture medium were added to the control well containing only target cells; 100 μl mouse spleen cells and 100 μl target cells were added to the NK activity assay well. Three parallel sets of the above were prepared per mouse.
Samples were centrifuged at 150 g for 10 minutes to collect the cells. The supernatant was discarded and 50 μl/well MTT of 1 mg/ml was added. The reaction mixture was then shaken for 2 minutes, and incubated at 37° C., 5% CO2 for 4 hours. The supernatant was discarded after centrifugation at 150 g for 10 minutes. 120 μl 40 mM HCl-2-propanol was added and shaken for 3 minutes. An ELISA reader was used to obtain OD570nm of each well referenced at 630 nm.

[3] = test system: anti-SRBC antibody; test: Sheep Red Blood Cell (SRBC) hemolysis test, anti-SRBC antibody formation; conditions: SRBC on day 12, IFN-γ and IL-2 groups 3×10^5 IU/kg/day, X ± SD
Experimental: Sheep red blood cells (SRBC) were prepared by collecting blood from cervical vein and put into a sterile flask with glass beads. The flask was shaken for 3 minutes and the blood then mixed with Alsever solution (glucose 2.05 g, NaCl 0.4 g, […] 0.8 g, adjust to 100 ml with distilled water) and stored at 4° C. Immediately before use, samples were centrifuged at 130 g, 5 minutes to collect the SRBC. The cells were washed two times by re-suspension and centrifugation in normal saline. Then the cell pellet was collected by centrifugation at 180 g for 10 minutes and re-suspended in saline to make the final working SRBC suspension, 2% (v/v).
Complement was prepared by adding 10 volumes of fresh Cavy serum into one volume centrifuge packed SRBC, and then gently shaking for 30 minutes at 4° C. The SRBC was removed by centrifugation at 200 g for 10 minutes. 10 volumes of normal saline were added to obtain the working complement solution.
The test substances were administered as described in section 1.1, plus intraperitoneal injection 0.2 ml SRBC per mouse on day 12. On the day after the last test substance administration (day 16), blood was collected from the eye canthus and left at room temperature for one hour for serum exudation. After centrifugation at 200 g for 10 minutes, the serum was diluted by 500 times with normal saline.
To 1 ml diluted mouse serum of each mouse, 0.5 ml SRBC suspension was added. Ice cold. Then 1 ml working complement solution was added and incubated at 37° C. water bath for 10 minutes. Reactions were terminated by ice cold. Samples were then centrifuged at 200 g for 10 minutes to obtain the supernatant.
To 1 ml of this supernatant, 3 ml Drabkin solution was added and left at room temperature for 10 minutes. OD540nm was obtained.
Reference OD540nm was obtained by mixing 0.25 ml SRBC suspension with Drabkin solution to 4 ml and placed at room temperature for 10 minutes before OD540nm was taken. Sample serum index=(OD540nm of test sample[…]reference OD540nm)×500 3. The Effect of Peptides on the Phagocytosis Function of Mononuclear Phagocyte and the Weight of Immune Organ^[8,9].

[4] = test system: T lymphocyte; test: T lymphocyte transformation test (ConA, MTT) on spleen cells of treated mice; design: key: OD of assay wells divided by OD of control wells; conditions: IFN-γ and IL-2 groups 3×10^5 IU/kg/day, X ± SD
Experimental: as §1, §3
Spleen cells of density 1×10^6/ml were placed onto a 96 wells cell culture plate, 100 μl/well, three parallel wells each of the assay sample and control sample per mouse. To the assay wells, 100 μl/well ConA of 100 μg/ml in RPMI-1640 was added, and 100 μl/well plain RPMI-1640 was used for the controls. The cells were incubated for 66 hrs at 37° C., 5% CO2. The cells were then pelleted by centrifugation at 150 g for 10 minutes.
50 μl/well MTT of 1 mg/ml in RPMI-1640 was added to the cell pellet and the cells re-suspended by shaking for 2 minutes. The incubation was continued for 4 hours. The supernatant was discarded after centrifugation at 150 g for 10 minutes. 120 μl 40 mM HCl-2-propanol was added to the cell pellet and shaken for 3 minutes. to obtain OD570nm of each well referenced at 630 nm. An ELISA reader was used
Each mouse formed three assay wells and three control wells. The Stimulation Index (SI) of each mouse was obtained by first deriving the average OD of the three parallel wells, then dividing the value of the assay wells by the control wells.

[5] = test system: mononuclear phagocyte; test: carbon particle clearance test, phagocytotic activity of mononuclear phagocyte; design: key: α = (cube root of K)×(body weight ÷ liver+spleen weight); conditions: peptide 0.5 μg/kg/day i.p. 15 days; IFN-γ and IL-2 groups 3×10^5 IU/kg/day; X ± SD
Experimental: On the next day after the last test substance administration (day 16), the mice were injected with […] body weight India ink (5 times dilution with normal saline) from the tail vein.
One minute and five minutes after Indian ink injection, 20 μl blood was obtained from the eye can thus with a heparinized tubing. The blood was mixed with 2 ml 0.1% w/v Na2CO3 and then OD680nm obtained. The outline clear index K was calculated by the following formula: K=(lgA1−lgA2)÷(t2−t1) Key: A1: OD680nm at first minute A2: OD680nm at fifth minute t2: 5 minutes […]
as §2

[6] = peptide 5 μg/kg/day i.p. 15 days, IFN-γ and IL-2 groups 3×10^5 IU/kg/day
[7] = peptide 50 μg/kg/day i.p. 15 days, IFN-γ and IL-2 groups 3×10^5 IU/kg/day
[8] = peptide 500 μg/kg/day i.p. 15 days
[9] = peptide 0.5 μg/kg/day i.p. 15 days
[10] = peptide 5 μg/kg/day i.p. 15 days
[11] = peptide 50 μg/kg/day i.p. 15 days
[12] = peptide 500 μg/kg/day i.p. 15 days, IFN-γ and IL-2 groups 3×10^5 IU/kg/day
[13] = peptide 0.5 μg/kg/day i.p. 15 days, IFN-γ and IL-2 groups 3×10^5 IU/kg/day

Substance | weight of thymus gland (thymus gland index) [1, 6] | weight of thymus gland (thymus gland index) [1, 7] | weight of spleen (spleen index) [1, 8] [%] | NK cell cytotoxic activity (NK cell activity index) [2, 8] [%] | anti-SRBC antibody formation (sample serum index) [3, 9] | anti-SRBC antibody formation (sample serum index) [3, 10] | anti-SRBC antibody formation (sample serum index) [3, 11] | anti-SRBC antibody formation (sample serum index) [3, 8] | stimulation index (T lymphocyte transformation) [4, 8] | weight of spleen (spleen index) [1, 7] [%] | weight of thymus gland (thymus gland index) [1, 12] | phagocytotic index [5] | weight of thymus gland (thymus gland index) [1, 13] | NK cell cytotoxic activity (NK cell activity index) [2, 11] [%] | stimulation index (T lymphocyte transformation) [4, 11] | NK cell cytotoxic activity (NK cell activity index) [2, 9] [%]
Ala Ala Phe [CMS023] | 0.23 ± 0.06 % | 0.20 ± 0.02*^@^ % | 0.36 ± 0.06 | 79 ± 12 | 108 ± 21*^@^ Unit | 166 ± 27*^@^ Unit | 84 ± 11*^@^ Unit | 110 ± 45*^@^ Unit |  |  |  |  |  |  |  | 
Phe Asn Glu Glu (FNEE; listed as Sus scrofa) [CMS029] | 0.21 ± 0.03 % | 0.18 ± 0.05 % |  | 87 ± 4 | 18 ± 7* Unit | 147 ± 23*^@^ Unit | 143 ± 13*^@^ Unit | 115 ± 22*^@^ Unit | 1.7 ± 0.3 | 0.42 ± 0.04 | 0.22 ± 0.04*^@^ % |  |  |  |  | 
Phe Glu Glu Asn Met (FEENM; listed as Sus scrofa) [CMS027] |  | 0.21 ± 0.03*^@^ % | 0.37 ± 0.03 | 88 ± 8 | 99 ± 14*^@^ Unit | 117 ± 45*^@^ Unit | 93 ± 11*^@^ Unit |  |  |  | 0.20 ± 0.03*^ % | 6.4 ± 0.6 |  |  |  | 
Phe Glu Ser Phe (FESF; listed as Sus scrofa) [CMS033] | 0.20 ± 0.02 % | 0.18 ± 0.03 % |  | 89 ± 8 | 78 ± 12*^@ Unit | 128 ± 39*^@^ Unit | 112 ± 15*^@^ Unit | 143 ± 27*^@^ Unit |  |  | 0.25 ± 0.04*^@^ % |  |  |  |  | 
TTYNSIM [CMS026] | 0.31 ± 0.05*^@^ % | 0.27 ± 0.02*^@^ % |  | 89 ± 7 | 19 ± 6* Unit | 191 ± 17*^@^ Unit | 98 ± 9*^@^ Unit |  |  |  | 0.20 ± 0.03*^ % |  | 0.21 ± 0.05 % | 76 ± 9 |  | 
VVYPWTQRF [CMS002] | 0.24 ± 0.05*^ % | 0.21 ± 0.02*^@^ % |  |  | 4 ± 1* Unit |  |  | 87 ± 18*^@ Unit | 1.8 ± 0.3 |  |  |  | 0.26 ± 0.06*^@^ % |  | 2.6 ± 0.3*^@^ | 76 ± 9

— patent US7718768B2, “Biologically active peptide [sequence]” (CMS Peptides Patent Holding Company Limited, priority 2001, dated 2010)
